Results published in ChEMBL document CHEMBL1201862, “PubChem BioAssay data set” (2004).
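Growth conditions: 96-well plates. Treatment: test compound, 48 hours, 5 concentrations. Analysis: linear interpolation between bracketing concentrations; unreached endpoints set to highest concentration. GI50: concentration for 50% inhibition of growth.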 Calls of active or inactive are those of the source. No stated cut-off is given here; in the data, active = GI50 up to about 1.1 µM and inactive = higher.

What was measured:
Test in all cases: NCI tumour cell line growth inhibition, 48 h
TK-10 = test system: TK-10
SK-MEL-5 = test system: SK-MEL-5
SF-295 = test system: SF-295
OVCAR-5 = test system: OVCAR-5
SK-MEL-28 = test system: SK-MEL-28
OVCAR-4 = test system: OVCAR-4
EKVX = test system: EKVX
UACC-62 = test system: UACC-62
786-0 = test system: 786-0
SR = test system: SR
KM12 = test system: KM12
SF-539 = test system: SF-539
OVCAR-8 = test system: OVCAR-8
RXF 393 = test system: RXF 393
HCT-116 = test system: HCT-116
UACC-257 = test system: UACC-257
A498 = test system: A498

| SMILES | GI50 (TK-10) | GI50 (SK-MEL-5) | GI50 (SF-295) | GI50 (OVCAR-5) | GI50 (SK-MEL-28) | GI50 (OVCAR-4) | GI50 (EKVX) | GI50 (UACC-62) | GI50 (786-0) | GI50 (SR) | GI50 (KM12) | GI50 (SF-539) | GI50 (OVCAR-8) | GI50 (RXF 393) | GI50 (HCT-116) | GI50 (UACC-257) | GI50 (A498) |
| --- | --- | --- | --- | --- | --- | --- | --- | --- | --- | --- | --- | --- | --- | --- | --- | --- | --- |
| O=C1Nc2ccccc2Nc2nc3cccccc-3c21 | > 100 µM (inactive) | > 100 µM (inactive) | > 100 µM (inactive) | > 100 µM (inactive) | > 100 µM (inactive) | > 100 µM (inactive) | > 100 µM (inactive) | > 100 µM (inactive) | > 100 µM (inactive) | > 100 µM (inactive) | > 100 µM (inactive) | > 100 µM (inactive) | > 100 µM (inactive) | > 100 µM (inactive) | > 100 µM (inactive) | – | – |
| Cc1cnc2ccc(C)c([N+](=O)[O-])c2c1NCCCN(C)C | > 100 µM (inactive) | – | > 100 µM (inactive) | > 100 µM (inactive) | > 100 µM (inactive) | > 100 µM (inactive) | > 100 µM (inactive) | – | > 100 µM (inactive) | > 100 µM (inactive) | > 100 µM (inactive) | > 100 µM (inactive) | > 100 µM (inactive) | – | 74.8 µM (inactive) | > 100 µM (inactive) | – |
| COc1ccc(OC)c(-c2cc(O)c3cc4c(cc3n2)OCO4)c1 | 11 µM (inactive) | 2.98 µM (inactive) | 4.15 µM (inactive) | 8.53 µM (inactive) | 5.87 µM (inactive) | 35.6 µM (inactive) | 37.4 µM (inactive) | 3.58 µM (inactive) | 6.47 µM (inactive) | 3.96 µM (inactive) | 3.86 µM (inactive) | 5.7 µM (inactive) | 9.59 µM (inactive) | 2.99 µM (inactive) | 4.14 µM (inactive) | 7.69 µM (inactive) | – |
| CCOC(=O)/C(C#N)=C/c1[nH]c(C)c(C)c1C | > 100 µM (inactive) | > 100 µM (inactive) | > 100 µM (inactive) | > 100 µM (inactive) | – | > 100 µM (inactive) | > 100 µM (inactive) | > 100 µM (inactive) | > 100 µM (inactive) | – | > 100 µM (inactive) | > 100 µM (inactive) | > 100 µM (inactive) | > 100 µM (inactive) | > 100 µM (inactive) | > 100 µM (inactive) | > 100 µM (inactive) |
| CC1=C(C(=O)Nc2ccc([N+](=O)[O-])cc2)C(c2ccccc2O)C(C(=O)Nc2ccc([N+](=O)[O-])cc2)=C(C)N1 | 44.7 µM (inactive) | 16.4 µM (inactive) | 29.6 µM (inactive) | 16 µM (inactive) | 21.6 µM (inactive) | 23.7 µM (inactive) | 23.1 µM (inactive) | – | 21.2 µM (inactive) | – | 20.2 µM (inactive) | 22.1 µM (inactive) | 28.2 µM (inactive) | 10.1 µM (inactive) | – | 21.7 µM (inactive) | 20.1 µM (inactive) |
| COc1cc([C@@H]2c3cc4c(cc3[C@@H](NCc3ccc(C#N)cc3)C3COC(=O)[C@@H]32)OCO4)cc(OC)c1O (stereo partly drawn) | 1.84 µM (inactive) | 1.5 µM (inactive) | 0.533 µM (active) | 2.02 µM (inactive) | 2.33 µM (inactive) | 20.8 µM (inactive) | 1.98 µM (inactive) | 0.55 µM (active) | 0.632 µM (active) | – | 1.4 µM (inactive) | 0.877 µM (active) | 1.2 µM (inactive) | 2.96 µM (inactive) | 1.19 µM (inactive) | 4.76 µM (inactive) | 1.07 µM (active) |
| NC(=O)C(=O)CC(=O)c1ccccc1NC1=CC(=O)C(=O)c2ccccc21 | > 100 µM (inactive) | 29.3 µM (inactive) | – | > 100 µM (inactive) | > 51.1 µM (inactive) | 19.2 µM (inactive) | > 100 µM (inactive) | 40.6 µM (inactive) | > 61.1 µM (inactive) | – | 54.3 µM (inactive) | > 100 µM (inactive) | 48.2 µM (inactive) | > 83.4 µM (inactive) | 53.1 µM (inactive) | 34.7 µM (inactive) | > 100 µM (inactive) |
| NNC(=O)N/N=C1\CN(c2ccc(Cl)cc2Cl)C(=O)C(=O)C1c1nc2ccccc2o1 (stereo not drawn) | – | > 100 µM (inactive) | – | > 100 µM (inactive) | > 100 µM (inactive) | > 100 µM (inactive) | > 100 µM (inactive) | > 100 µM (inactive) | > 100 µM (inactive) | > 100 µM (inactive) | > 100 µM (inactive) | > 100 µM (inactive) | > 100 µM (inactive) | – | > 100 µM (inactive) | > 100 µM (inactive) | > 100 µM (inactive) |
| Fc1ccc(C2SCc3nc4ccccc4n32)cc1 (stereo not drawn) | 24.4 µM (inactive) | 15.8 µM (inactive) | 40.7 µM (inactive) | 21.4 µM (inactive) | 23.6 µM (inactive) | 36.3 µM (inactive) | 58.1 µM (inactive) | > 10 µM (inactive) | 42.9 µM (inactive) | 27 µM (inactive) | 37.2 µM (inactive) | > 100 µM (inactive) | 49 µM (inactive) | 17.2 µM (inactive) | 32.4 µM (inactive) | – | – |
